The values that follow come from patent US20160168118A1, “N-(5-QUINOLIN-6-YL)PYRIDIN-3-YL) BENZSULFAMIDE DERIVATIVES, PREPARATION METHOD AND THERAPEUTIC USE THEREOF” (SECOND MILITARY MEDICAL UNIVERSITY, PLA, priority 2012, published 2016).

Data set [1] relates to HCT116 (human colon cancer cells). Description: MTT assay, HCT116. The format is cell-based. The conditions noted are these: HCT-116, 72 h.
In another data set the target is PI3Kα (Homo sapiens, UniProt P42336). Description: Kinase-Glo Luminescent Kinase Assay, PI3Kα. It counts as biochemical.
In data set [2] the test system is HepG2 (human hepatoma cells). The data set is described as follows: MTT assay, HepG2. To be noted: 72 h. The format is cell-based. Here is the method:
(§1) 1. Sample preparation: After dissolved with DMSO (Merck), PBS (−) was added to make 1000 μg/ml solution or a uniform suspension, and then diluted with PBS (−) containing the DMSO. Doxorubicin (DOX) was used as the positive control drug.
(§2) 2. Cell Line • 1) A549 (human lung cancer cells); 2) HCT116 (human colon cancer cells); 3) HepG2 (human hepatoma cells); 4) ZR-75-30 (human breast cancer cells); 5) U87MG (human brain star glioblastoma)
(§3) DMEM+5-10% FBS+double resistant
(§4) MTT assay. 100 μl cell suspension was added at a concentration of 4˜5×10^4 cells/ml to each well of a 96-well plate, and was set at 37° C., 5% CO2 in the incubator. After 24 h, the sample solution was added, 10 μl/hole, double wells were set, 37° C., acting for 72 h at 5% CO2. […] of 5 mg/ml was added to each well, the dissolving liquid was added after acted for 4 h, 100 μl/hole, kept in the incubator, and read 570 nm OD with MK-2 automatic microplate reader after dissolution.

For data set [3], the system named is A549 (human lung cancer cells). The data set is described as follows: MTT assay, A549. It counts as cell-based. The conditions noted are these: 72 h. Here is the method: as §1, §2, §3, §4
Data set [4] relates to U87MG (human brain star glioblastoma). Description: MTT assay, U87MG. The format is cell-based. To be noted: U-87 MG, 72 h. How it is done: as §1, §2, §3, §4

In brackets after ≈: the same amount, converted by molar mass.

PI3Kα, sequence (P42336 whole entry, species assumed): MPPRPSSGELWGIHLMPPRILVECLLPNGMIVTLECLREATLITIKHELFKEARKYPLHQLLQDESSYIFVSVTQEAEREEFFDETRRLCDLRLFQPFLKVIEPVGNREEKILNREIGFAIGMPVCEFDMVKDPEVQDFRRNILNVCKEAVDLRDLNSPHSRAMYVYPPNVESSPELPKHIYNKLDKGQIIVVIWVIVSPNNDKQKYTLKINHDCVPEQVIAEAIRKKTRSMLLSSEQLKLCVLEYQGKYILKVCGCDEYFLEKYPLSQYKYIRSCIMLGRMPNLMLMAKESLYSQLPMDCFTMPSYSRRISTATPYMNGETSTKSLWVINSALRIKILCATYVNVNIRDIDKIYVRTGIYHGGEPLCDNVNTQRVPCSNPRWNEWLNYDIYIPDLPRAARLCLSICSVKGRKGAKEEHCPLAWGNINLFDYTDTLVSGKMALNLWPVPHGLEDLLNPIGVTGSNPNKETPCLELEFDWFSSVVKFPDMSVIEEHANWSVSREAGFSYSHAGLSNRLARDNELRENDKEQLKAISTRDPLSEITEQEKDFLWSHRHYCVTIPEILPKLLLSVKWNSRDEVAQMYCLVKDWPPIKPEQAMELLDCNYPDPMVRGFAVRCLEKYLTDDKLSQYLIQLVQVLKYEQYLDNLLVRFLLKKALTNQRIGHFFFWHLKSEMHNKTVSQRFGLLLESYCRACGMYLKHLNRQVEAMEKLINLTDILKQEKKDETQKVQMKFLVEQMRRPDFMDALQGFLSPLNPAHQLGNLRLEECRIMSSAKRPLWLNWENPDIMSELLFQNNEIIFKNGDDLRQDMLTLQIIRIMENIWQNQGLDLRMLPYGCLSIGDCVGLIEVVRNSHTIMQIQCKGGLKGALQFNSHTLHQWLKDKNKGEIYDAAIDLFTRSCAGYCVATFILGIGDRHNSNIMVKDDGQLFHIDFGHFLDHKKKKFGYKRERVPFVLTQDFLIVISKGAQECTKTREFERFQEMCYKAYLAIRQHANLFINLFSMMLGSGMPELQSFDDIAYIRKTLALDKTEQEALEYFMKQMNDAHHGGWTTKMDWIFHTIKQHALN
PI3Kα, sequence (P27986 whole entry partner, species assumed): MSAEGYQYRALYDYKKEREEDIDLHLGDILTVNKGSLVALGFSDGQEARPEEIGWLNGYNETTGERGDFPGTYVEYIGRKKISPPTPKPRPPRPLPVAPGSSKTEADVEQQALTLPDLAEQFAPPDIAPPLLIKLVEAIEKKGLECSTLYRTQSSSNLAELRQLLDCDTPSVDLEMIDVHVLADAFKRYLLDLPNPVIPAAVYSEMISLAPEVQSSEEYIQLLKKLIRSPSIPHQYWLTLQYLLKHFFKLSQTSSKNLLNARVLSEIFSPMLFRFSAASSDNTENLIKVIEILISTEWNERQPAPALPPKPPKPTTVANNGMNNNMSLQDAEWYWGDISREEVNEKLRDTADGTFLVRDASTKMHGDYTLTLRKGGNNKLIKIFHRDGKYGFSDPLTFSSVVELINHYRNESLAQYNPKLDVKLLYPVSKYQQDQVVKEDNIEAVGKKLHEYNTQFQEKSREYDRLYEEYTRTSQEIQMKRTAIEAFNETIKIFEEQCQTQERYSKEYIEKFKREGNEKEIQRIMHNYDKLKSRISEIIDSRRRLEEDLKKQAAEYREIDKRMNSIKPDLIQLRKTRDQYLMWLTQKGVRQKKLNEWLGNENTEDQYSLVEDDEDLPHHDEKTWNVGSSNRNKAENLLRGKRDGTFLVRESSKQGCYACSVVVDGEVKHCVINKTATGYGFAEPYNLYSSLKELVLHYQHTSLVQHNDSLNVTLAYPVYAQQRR

Turning to `O=S(=O)(Nc1cc(-c2ccc3nccc(-c4ccc(Cn5cncn5)cc4)c3c2)cnc1Cl)c1ccc(F)cc1F` [Compound 35, N-(5-(4-(4-((1H-1,2,4-triazole-1-yl)methyl)phenyl)quinolin-6-yl)-2-chlorinepyridin-3-yl)-2,4-difluorobenzenesulfonamide], the melting point was in the range of 145 to 148 °C. For the same compound, half-maximal inhibition in data set [1] (IC50) was put at 1.64 µg/mL (≈ 2.78 µM). Moreover, the IC50 against PI3Kα amounted to 0.82 nM. In data set [2], this compound registered an IC50 of 1.2 µg/mL (≈ 2.04 µM). In addition, the IC50 in data set [3] amounted to 5.66 µg/mL (≈ 9.61 µM).

`COc1ncc(-c2ccc3nccc(-c4ccc(CN(C)CCN(C)C)cc4)c3c2)cc1NS(=O)(=O)c1ccc(F)cc1F` [Compound 24] gave a melting point of 87 to 88 °C. Moreover, the IC50 in data set [1] was 0.032 µg/mL (≈ 0.0518 µM). The compound also registered an IC50 against PI3Kα of 2.5 nM. Also, 0.00804 µg/mL (≈ 0.013 µM) corresponded to half-maximal inhibition in data set [3] (IC50). The compound further yielded an IC50 in data set [4] of 0.157 µg/mL (≈ 0.254 µM).

Turning to `COc1ncc(-c2ccc3nccc(-c4ccc(CN(C)CCO)cc4)c3c2)cc1NS(=O)(=O)c1ccc(F)cc1` [Compound 38, N-(5-(4-(4-(((2-hydroxyethyl)(methyl)amino)methyl)phenyl)quinolin-6-yl)-2-methoxypyridine-3-yl)-4-fluorobenzenesulfonamide], the IC50 in data set [1] turned out to be 1.12 µg/mL (≈ 1.96 µM); against PI3Kα, 4.8 nM; in data set [2], 1.06 µg/mL (≈ 1.85 µM); in data set [3], 0.19 µg/mL (≈ 0.332 µM).

As for `COc1ncc(-c2ccc3nccc(-c4ccc(Cn5cccn5)cc4)c3c2)cc1NS(=O)(=O)c1ccc(F)cc1F` [Compound 21, N-(5-(4-(4-((1H-pyrazole-1-yl)methyl)phenyl)quinolin-6-yl)-2-methoxypyridine-3-yl)-2,4-difluorobenzenesulfonamide], the melting point was 93 to 95 °C. The compound also displayed an IC50 in data set [1] of 0.031 µg/mL (≈ 0.0531 µM). The compound further yielded an IC50 against PI3Kα of 1.1 nM. In addition, in data set [3], the IC50 was 0.018 µg/mL (≈ 0.0308 µM). The same compound showed an IC50 in data set [4] of 0.935 µg/mL (≈ 1.6 µM).

As to `O=S(=O)(Nc1cc(-c2ccc3nccc(-c4ccc(CN5CCOCC5)cc4)c3c2)cnc1Cl)c1ccc(F)cc1F` [Compound 30, N-(5-(4-(4-((morpholino-1-yl)methyl)phenyl)quinolin-6-yl)-2-chlorinepyridin-3-yl)-2,4-difluorobenzenesulfonamide], the IC50 in data set [1] was 2.39 µg/mL (≈ 3.94 µM); against PI3Kα, 1.1 nM; in data set [2], 1.4 µg/mL (≈ 2.31 µM); in data set [3], 0.22 µg/mL (≈ 0.362 µM).

In the case of `COc1cccc2c1C(=O)c1c(O)c3c(c(O)c1C2=O)C[C@@](O)(C(=O)CO)C[C@@H]3O[C@H]1C[C@H](N)[C@H](O)[C@H](C)O1` [DOX, Doxorubicin, reference compound], the values for the IC50 in data set [1], in data set [3] and in data set [4] were 0.0308 µg/mL (≈ 0.0567 µM), 0.324 µg/mL (≈ 0.596 µM) and 0.536 µg/mL (≈ 0.986 µM), respectively.

Consider `COc1ncc(-c2ccc3nccc(-c4ccc(C(=O)N5CCCC5)cc4)c3c2)cc1NS(=O)(=O)c1ccc(F)cc1F` [Compound 11, N-(2-methoxy-5-(4-(4-(pyrrolidinyl-1-carbonyl)phenyl)quinolin-6-yl)pyridin-3-yl)-2,4-difluorobenzenesulfonamide], for which the melting point was in the range of 115 to 117 °C. Further, the midpoint of inhibition in data set [1], the IC50, lay at 0.221 µg/mL (≈ 0.368 µM). For the same compound, the IC50 at PI3Kα was determined as 0.7 nM. This compound also displayed an IC50 in data set [3] of 0.048 µg/mL (≈ 0.0799 µM). This compound came in with an IC50 in data set [4] of 0.284 µg/mL (≈ 0.473 µM).

In the case of `COc1ncc(-c2ccc3nccc(-c4ccc(CN(CCO)CCO)cc4)c3c2)cc1NS(=O)(=O)c1ccc(F)cc1F` [Compound 20, N-(5-(4-(4-((di(2-hydroxyethyl)amino)methyl)phenyl)quinolin-6-yl)-2-methoxypyridine-3-yl)-2,4-difluorobenzenesulfonamide], the melting point was 90 to 91 °C. Further, the IC50 in data set [1] came out at 0.00237 µg/mL (≈ 0.00382 µM). The IC50 at PI3Kα is 1.3 nM. The compound further had an IC50 in data set [3] of 0.00174 µg/mL (≈ 0.0028 µM). The same compound gave an IC50 in data set [4] of 0.089 µg/mL (≈ 0.143 µM).

For `COc1ncc(-c2ccc3nccc(-c4ccc(CN5CCN(CCO)CC5)cc4)c3c2)cc1NS(=O)(=O)c1ccc(F)cc1F` [Compound 19, N-(5-(4-(4-((4-(2-hydroxyethyl)piperazine-1-yl)methyl)phenyl)quinolin-6-yl)-2-methoxypyridine-3-yl)-2,4-difluorobenzenesulfonamide], the IC50 came out at 0.014 µg/mL (≈ 0.0217 µM) in data set [1], 1.2 nM against PI3Kα, 0.016 µg/mL (≈ 0.0248 µM) in data set [3] and 0.137 µg/mL (≈ 0.212 µM) in data set [4].

Consider `COc1ncc(-c2ccc3nccc(-c4ccc(Cn5ccnc5)cc4)c3c2)cc1NS(=O)(=O)c1ccc(F)cc1F` [Compound 15, N-(5-(4-(4-((1H-imidazole-1-yl)methyl)phenyl)quinolin-6-yl)-2-methoxypyridine-3-yl)-2,4-difluorobenzenesulfonamide], for which the melting point fell in the range of 108 to 109 °C. The IC50 in data set [1] was 0.019 µg/mL (≈ 0.0326 µM). The compound also had an IC50 on PI3Kα of 1.1 nM. For the same compound, in data set [3], half-maximal inhibition (IC50) was put at 0.018 µg/mL (≈ 0.0308 µM). The same compound came in with an IC50 in data set [4] of 0.35 µg/mL (≈ 0.6 µM).

For `COc1ncc(-c2ccc3nccc(-c4ccc(CN5CCCC5)cc4)c3c2)cc1NS(=O)(=O)c1ccc(F)cc1F` [Compound 12], the melting point was 129 to 130 °C. The compound also gave an IC50 in data set [1] of 0.011 µg/mL (≈ 0.0188 µM). Further, half-maximal inhibition against PI3Kα (IC50) required 1.4 nM. In data set [3], this compound displayed an IC50 of 0.022 µg/mL (≈ 0.0375 µM). Further, in data set [4], the IC50 worked out at 0.093 µg/mL (≈ 0.159 µM).

Regarding `CCN(Cc1ccc(-c2ccnc3ccc(-c4cnc(OC)c(NS(=O)(=O)c5ccc(F)cc5F)c4)cc23)cc1)C1CCCCC1` [Compound 22, N-(5-(4-(4-((cyclohexyl(ethyl)amino)methyl)phenyl)quinolin-6-yl)-2-methoxypyridine-3-yl)-2,4-difluorobenzenesulfonamide], the melting point lay within 87 to 88 °C. This compound also registered an IC50 in data set [1] of 0.143 µg/mL (≈ 0.222 µM). The compound further had an IC50 against PI3Kα of 1.6 nM. Besides, the IC50 in data set [3] was 0.013 µg/mL (≈ 0.0202 µM). Inhibition in data set [4] was half-maximal at 0.93 µg/mL (≈ 1.45 µM) (IC50).

As for `COc1ncc(-c2ccc3nccc(-c4ccc(CN5CCOCC5)cc4)c3c2)cc1NS(=O)(=O)c1ccc(F)cc1` [Compound 29, N-(5-(4-(4-((morpholino-1-yl)methyl)phenyl)quinolin-6-yl)-2-methoxypyridine-3-yl)-4-fluorobenzenesulfonamide], the IC50 in data set [1] worked out at 1.37 µg/mL (≈ 2.34 µM); against PI3Kα, 1.6 nM; in data set [2] it was 15.9 µg/mL (≈ 27.1 µM); in data set [3], 0.15 µg/mL (≈ 0.257 µM).

Turning to `COc1ncc(-c2ccc3nccc(-c4ccc(CN5CCCCC5)cc4)c3c2)cc1NS(=O)(=O)c1ccc(F)cc1F` [Compound 14, N-(5-(4-(4-((piperidine-1-yl)methyl)phenyl)quinolin-6-yl)-2-methoxypyridine-3-yl)-2,4-difluorobenzenesulfonamide], the IC50 in data set [1] turned out to be 0.0205 µg/mL (≈ 0.0341 µM); against PI3Kα it was 1.2 nM; in data set [3] it was 0.00934 µg/mL (≈ 0.0155 µM); in data set [4], 0.019 µg/mL (≈ 0.0316 µM).

In the case of `O=S(=O)(Nc1cc(-c2ccc3nccc(-c4ccc(CN5CCOCC5)cc4)c3c2)cnc1Cl)c1ccc(F)cc1` [Compound 28, N-(5-(4-(4-((morpholino-1-yl)methyl)phenyl)quinolin-6-yl)-2-chlorinepyridin-3-yl)-4-fluorobenzenesulfonamide], the IC50 came to 1.87 µg/mL (≈ 3.17 µM) in data set [1], 1.5 nM at PI3Kα, 4.55 µg/mL (≈ 7.72 µM) in data set [2] and 0.47 µg/mL (≈ 0.798 µM) in data set [3].

As for `COc1ncc(-c2ccc3nccc(-c4ccc(CN5CCOCC5)cc4)c3c2)cc1NS(=O)(=O)c1ccc(F)cc1F` [Compound 13, N-(5-(4-(4-((morpholino-1-yl)methyl)phenyl)quinolin-6-yl)-2-methoxypyridine-3-yl)-2,4-difluorobenzenesulfonamide], the melting point is 97 to 99 °C. Besides, the midpoint of inhibition in data set [1], the IC50, lay at 0.00196 µg/mL (≈ 0.00325 µM). The IC50 against PI3Kα came to 1.1 nM. Further, the IC50 in data set [3] was 0.042 µg/mL (≈ 0.0697 µM). Moreover, in data set [4], 0.091 µg/mL (≈ 0.151 µM) corresponded to half-maximal inhibition (IC50).

For `COc1ncc(-c2ccc3nccc(-c4ccc(CN5CCN(C(C)C)CC5)cc4)c3c2)cc1NS(=O)(=O)c1ccc(F)cc1F` [Compound 18, N-(5-(4-(4-((4-isopropylpiperazine-1-yl)methyl)phenyl)quinolin-6-yl)-2-methoxypyridine-3-yl)-2,4-difluorobenzenesulfonamide], the IC50 is 0.0159 µg/mL (≈ 0.0247 µM) in data set [1], 1.7 nM on PI3Kα, 0.00124 µg/mL (≈ 0.00193 µM) in data set [3] and 0.301 µg/mL (≈ 0.468 µM) in data set [4].

`COc1ncc(-c2ccc3nccc(-c4ccc(Cn5ccnc5C)cc4)c3c2)cc1NS(=O)(=O)c1ccc(F)cc1F` [Compound 16, N-(5-(4-(4-((2-methyl-1H-imidazole-1-yl)methyl)phenyl)quinolin-6-yl)-2-methoxypyridine-3-yl)-2,4-difluorobenzenesulfonamide] registered a melting point of 110 to 111 °C. This compound also gave an IC50 in data set [1] of 0.00846 µg/mL (≈ 0.0142 µM). This compound showed an IC50 at PI3Kα of 0.95 nM. In data set [3], this compound displayed an IC50 of 0.00608 µg/mL (≈ 0.0102 µM). In addition, the midpoint of inhibition in data set [4], the IC50, lay at 0.024 µg/mL (≈ 0.0402 µM).

Turning to `COc1ncc(-c2ccc3nccc(-c4ccc(CN5CCN(C)CC5)cc4)c3c2)cc1NS(=O)(=O)c1ccc(F)cc1F` [Compound 23, N-(5-(4-(4-((4-methylpiperazine-1-yl)methyl)phenyl)quinolin-6-yl)-2-methoxypyridine-3-yl)-2,4-difluorobenzenesulfonamide], the IC50 was found to be 0.027 µg/mL (≈ 0.0439 µM) in data set [1], 1.3 nM against PI3Kα, 0.00818 µg/mL (≈ 0.0133 µM) in data set [3] and 0.207 µg/mL (≈ 0.336 µM) in data set [4].
